For one data set, the target named is T1, hTopo II (Homo sapiens, UniProt P11388).
T1 construct: purchased TopoGEN, Port Orange, FL
As to the kind of experiment: hTopo II decatenation assay. On the set-up: key to Topoisomerase Inhibition hTopo II: (+) inhibition; (−) no inhibition; (+/−) partial inhibition. The conditions noted are these: for hTopo II activity inhibition (in words): kDNA. The format is biochemical. The procedure: The linear kDNA (Figure 4a,b, lanes A), decatenated kDNA (Figure 4a,b, lanes B) and the catenated circles of kDNA (Figure 4a,b, lanes C) were used as markers. A parallel experiment was performed using ellipticine as reference molecule.
(§1) hTopo I relaxation assays were performed by incubating the substrate (supercoiled pHOT1) with the recombinant hTopo I (TopoGEN, Port Orange, FL, USA) and compounds, as indicated in the supplier protocol (TopoGEN, Port Orange, FL, USA), with some revisions. hTopo II decatenation assays were conducted by incubating the kinetoplast DNA substrate (kDNA) with the hTopo II (TopoGEN, Port Orange, FL) and studied compounds, as indicated in the supplier procedures (TopoGEN, Port Orange, FL, USA), with some changes as in [80].
Figure 4 hTopo II decatenation assay. […] The same experiment was performed using ellipticine (c). Lane 1, decatenated kDNA marker; lane 2, linear kDNA marker; lane 3, CTRL (DMSO), lanes 4–5, ellipticine 10 and 50 µM, respectively.

The subject of data set [1] is MDA-MB-231 breast cancer cells. Description: MTT cell viability assay, MDA-MB-231. The format is cell-based. The conditions noted are these: Homo sapiens, 72 h. The procedure:
(§2) All of the synthesized compounds (7a–f) were studied to test their anticancer activity toward the estrogen receptor-positive (ER+) MCF-7 and the triple-negative MDA-MB-231 breast cancer cells (ER-, PR- and HER-2/Neu not overexpressed) and A2058 melanoma cells. Cells were incubated for 72 h with different concentrations of the compounds, and then the viability was checked by the MTT assay. […] Moreover, we checked the cytotoxicity of all of the synthesized compounds against the human MCF-10A non-malignant breast epithelial cells and mouse BALB/3T3 embryonic fibroblasts, in order to evaluate their selectivity on cancer cells.
(§3) The used cell lines (breast cancer cell lines MCF-7 and MDA-MB-231, melanoma cell line A2058 and human mammary epithelial cell line MCF-10A) were obtained from American Type Culture Collection (ATCC, Manassas, VA, USA) and cultured as already reported. The mouse BALB/3T3 embryonic fibroblasts were also purchased from American Type Culture Collection (ATCC, Manassas, VA, USA) and cultured in DMEM high glucose supplemented with 10% bovine calf serum (BCS) and 100 U mL^−1 penicillin/streptomycin.
(§4) MTT assay (Sigma Aldrich (St. Louis, MO, USA)) was performed for evaluating the in vitro anticancer activities of the compounds, as previously indicated. Different concentrations (0.1, 1, 10, 25, 50, and 100 μM) of the compounds were employed, with a 72 h endpoint. IC50 values were obtained from the percent (%) of control using GraphPad Prism 9 (GraphPad Software, La Jolla, CA, USA).
For orientation: Formazan colour is commonly taken as a measure of viable cells.

For data set [2], the system named is human MCF-10A non-malignant breast epithelial cells. As to the kind of experiment: MTT cytotoxicity assay, MCF-10A. The conditions noted are these: 72 h, normal cells. The format is cell-based. The procedure:
as §2, §3, §4

For the next data set, the system named is A2058 melanoma cells. As to the kind of experiment: MTT cell viability assay, A2058. In kind it is cell-based. The conditions noted are these: Homo sapiens, 72 h. On the procedure: as §2, §3, §4
For data set [3], the system named is MCF-7 breast cancer cells. Description: MTT cell viability assay, MCF-7. In kind it is cell-based, human. The conditions noted are these: Homo sapiens, MCF7; MTT, 72 h. On the procedure:
as §2, §3, §4

In the next data set the target is T2, hTopo I (Homo sapiens, UniProt P11387).
T2 construct: purchased TopoGEN, Port Orange, FL, USA
T2 sequence (P11387 1-765): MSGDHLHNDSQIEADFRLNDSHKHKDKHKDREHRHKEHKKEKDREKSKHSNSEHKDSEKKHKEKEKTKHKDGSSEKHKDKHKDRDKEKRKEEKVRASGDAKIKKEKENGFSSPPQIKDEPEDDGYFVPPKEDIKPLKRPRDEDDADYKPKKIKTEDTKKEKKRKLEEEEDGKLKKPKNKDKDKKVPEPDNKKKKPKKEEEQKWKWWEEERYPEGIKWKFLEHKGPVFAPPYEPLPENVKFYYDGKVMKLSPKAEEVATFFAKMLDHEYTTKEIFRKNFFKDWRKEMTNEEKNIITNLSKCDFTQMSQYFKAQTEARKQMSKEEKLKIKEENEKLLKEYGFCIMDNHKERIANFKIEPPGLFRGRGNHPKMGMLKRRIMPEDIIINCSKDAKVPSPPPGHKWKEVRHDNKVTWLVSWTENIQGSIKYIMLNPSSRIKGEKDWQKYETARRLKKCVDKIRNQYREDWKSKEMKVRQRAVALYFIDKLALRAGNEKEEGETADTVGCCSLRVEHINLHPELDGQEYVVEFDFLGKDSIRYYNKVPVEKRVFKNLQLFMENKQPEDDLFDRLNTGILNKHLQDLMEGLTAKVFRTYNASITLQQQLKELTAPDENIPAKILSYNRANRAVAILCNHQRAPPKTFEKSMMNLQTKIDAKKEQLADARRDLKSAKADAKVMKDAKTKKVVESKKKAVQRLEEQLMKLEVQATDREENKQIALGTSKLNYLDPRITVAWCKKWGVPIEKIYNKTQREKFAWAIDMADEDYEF
Description: hTopo I relaxation assay. In kind it is biochemical. Details: key to Topoisomerase Inhibition hTopo I: (+) inhibition; (−) no inhibition; (+/−) partial inhibition. The conditions noted are these: for hTopo I activity inhibition (in words): supercoiled pHOT1.
Description: Thiazoles and their derivatives are extensively recognized as chemical nuclei of great interest for producing molecules with multiple biological properties. In particular, several compounds bearing these heterocycles were studied for their capability to interfere with DNA topoisomerases (Topos), ubiquitous enzymes essential in several key cellular processes. In recent years, these enzymes have become popular targets in cancer therapy; indeed, the topoisomerase inhibitors can induce damage to genome integrity. Consequently, the inhibition of topoisomerases leads to cell death by apoptosis and, thus, is fatal. Thus, we carried out two specific tests in vitro for both of the Topos, namely the hTopo I relaxation and the hTopo II decatenation assays. For the hTopo I relaxation assay, we exposed the enzyme to the most interesting compounds, 7b–7e, at the final concentration of 10 µM for 1 h at 37 °C, using as substrate the supercoiled pHOT1 (see Section 4 Materials and Methods for more details). […] Contrarily, in the CTRL lane, where the hTopo I was exposed to only vehicle (DMSO), several bands due to pHOT1 DNA cleavage were present (Figure 3, lane C). […] In Figure 3, panel B, the hTopo I inhibition results using ellipticine, as reference molecule are shown. […] An electrophoretic mobility shift of the pHOT1 DNA was also noticeable, due to the intercalating properties of ellipticine.
as §1
Figure 3 hTopo I relaxation assay. Plasmid pHOT1, used as substrate, was incubated with hTopo I with or without the studied compounds 7b–7e (10 µM concentration), panel (A), and with or without ellipticine (10 and 50 µM concentration), panel (B). Lane A, relaxed DNA marker; lane B, pHOT1 supercoiled DNA, lane C, CTRL (DMSO), lane D–G, compounds 7b–7e 10 µM, respectively. Lane 1, pHOT1 supercoiled DNA; lane 2, CTRL (DMSO), lanes 3–4, ellipticine 10 and 50 µM, respectively.

Data set [4] relates to mouse BALB/3T3 embryonic fibroblasts. Description: MTT cytotoxicity assay, BALB/3T3. The conditions noted are these: 72 h, normal cells. In kind it is cell-based. The procedure:
as §2, §3, §4

This is an account of results in paper PMC10384675, “Novel Thiazolidine-2,4-dione-trimethoxybenzene-thiazole Hybrids as Human Topoisomerases Inhibitors” (Pharmaceuticals, 2023).

Each structure is given as a SMILES string.

As usually defined, the IC50 is the concentration at which inhibition is half-maximal. In general, melting point refers to the temperature, or range, at which the solid turns liquid.

T1 sequence (P11388 whole entry): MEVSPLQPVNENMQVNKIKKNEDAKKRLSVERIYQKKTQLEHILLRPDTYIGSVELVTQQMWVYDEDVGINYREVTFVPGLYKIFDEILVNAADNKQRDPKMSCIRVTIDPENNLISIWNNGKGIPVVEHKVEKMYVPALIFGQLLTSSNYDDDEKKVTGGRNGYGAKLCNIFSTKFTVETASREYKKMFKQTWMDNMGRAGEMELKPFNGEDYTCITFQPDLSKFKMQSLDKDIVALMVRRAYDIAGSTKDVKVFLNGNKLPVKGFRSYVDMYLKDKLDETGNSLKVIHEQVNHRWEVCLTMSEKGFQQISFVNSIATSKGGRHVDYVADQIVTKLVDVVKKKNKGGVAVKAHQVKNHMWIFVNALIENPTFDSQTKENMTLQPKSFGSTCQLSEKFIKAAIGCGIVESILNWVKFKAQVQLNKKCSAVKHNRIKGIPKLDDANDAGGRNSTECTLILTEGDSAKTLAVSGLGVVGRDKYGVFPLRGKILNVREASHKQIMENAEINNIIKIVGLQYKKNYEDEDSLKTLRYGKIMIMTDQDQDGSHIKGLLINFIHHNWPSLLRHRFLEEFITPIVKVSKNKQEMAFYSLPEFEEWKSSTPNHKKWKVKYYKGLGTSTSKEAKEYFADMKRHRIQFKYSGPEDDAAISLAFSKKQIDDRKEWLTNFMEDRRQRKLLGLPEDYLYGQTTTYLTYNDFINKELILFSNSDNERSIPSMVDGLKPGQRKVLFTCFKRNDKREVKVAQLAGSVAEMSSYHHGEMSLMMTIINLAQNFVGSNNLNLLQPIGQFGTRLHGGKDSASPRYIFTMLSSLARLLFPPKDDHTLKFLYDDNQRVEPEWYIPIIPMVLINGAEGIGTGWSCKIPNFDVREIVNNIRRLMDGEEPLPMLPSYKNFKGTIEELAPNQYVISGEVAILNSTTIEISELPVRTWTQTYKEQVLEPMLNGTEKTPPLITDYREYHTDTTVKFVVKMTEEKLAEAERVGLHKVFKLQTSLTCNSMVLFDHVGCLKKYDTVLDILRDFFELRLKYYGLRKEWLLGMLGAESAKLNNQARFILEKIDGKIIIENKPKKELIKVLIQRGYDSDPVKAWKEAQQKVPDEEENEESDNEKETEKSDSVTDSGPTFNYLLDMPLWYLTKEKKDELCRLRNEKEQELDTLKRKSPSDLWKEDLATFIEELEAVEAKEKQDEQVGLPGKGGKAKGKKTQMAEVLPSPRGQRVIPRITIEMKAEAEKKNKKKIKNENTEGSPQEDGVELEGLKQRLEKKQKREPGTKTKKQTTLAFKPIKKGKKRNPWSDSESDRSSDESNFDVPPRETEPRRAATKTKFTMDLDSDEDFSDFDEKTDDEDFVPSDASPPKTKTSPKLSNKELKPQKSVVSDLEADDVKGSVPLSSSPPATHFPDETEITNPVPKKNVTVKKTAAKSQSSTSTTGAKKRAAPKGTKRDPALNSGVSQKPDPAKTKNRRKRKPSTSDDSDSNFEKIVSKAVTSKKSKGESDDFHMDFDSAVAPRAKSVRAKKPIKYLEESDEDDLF

As for `Cc1c2ccncc2c(C)c2c1[nH]c1ccccc12` [ellipticine, reference compound], the “Topoisomerase Inhibition hTopo II” value is listed as “+/−” on hTopo II (10 µM) and “+” at hTopo II (50 µM). Also, the “hTopo II activity inhibition (in words)” value at hTopo II (50 µM) is “totally block”. Further, the IC50 stood at 1.73 ± 0.4 µM in data set [1]; 1.09 ± 0.1 µM in data set [2]; 1.33 ± 0.9 µM in the data set with A2058 melanoma cells; 1.15 ± 0.5 µM in data set [3]; 0.97 ± 0.1 µM in data set [4]. The “Topoisomerase Inhibition hTopo I” value at hTopo I (10 µM) and on hTopo I (50 µM) was “+” in each case. Moreover, the “hTopo I activity inhibition (in words)” value is listed as “able to block the hTopo I activity” at hTopo I (10 µM, 1 h, 37 °C) and “able to block the hTopo I activity” on hTopo I (50 µM).
As to `COc1cc(/C=C2\SC(=O)N(CC(=O)Nc3nc4ccccc4s3)C2=O)cc(OC)c1OC` [compound 7f, (Z)-2-(5-(3,4,5-Trimethoxybenzylidene)thiazolidin-2,4-dion-3-yl)-N-(benzo[d]thiazol-2-yl)acetamide], the “Topoisomerase Inhibition hTopo II” value on hTopo II (10 µM) is given as “−”; on hTopo II (50 µM), “+”. In addition, the IC50 is 50.5 ± 0.8 µM in data set [1]; greater than 100 µM in data set [2]; 24.6 ± 1.1 µM in the data set on A2058 melanoma cells; 17.4 ± 1.1 µM in data set [3]; greater than 100 µM in data set [4]. Also, on hTopo I (10 µM), the “Topoisomerase Inhibition hTopo I” value is “+”.
`COc1cc(/C=C2\SC(=O)N(CC(=O)Nc3nccs3)C2=O)cc(OC)c1OC` [compound 7a, (Z)-2-(5-(3,4,5-Trimethoxybenzylidene)thiazolidin-2,4-dion-3-yl)-N-(thiazol-2-yl)acetamide] had a melting point of 245 to 247 °C. Moreover, the IC50 in data set [1] came to 27.5 ± 0.9 µM. Besides, the IC50 in data set [2] was greater than 100 µM. In the data set on A2058 melanoma cells, the IC50 was greater than 100 µM. The compound further returned an IC50 in data set [3] greater than 100 µM. The IC50 in data set [4] came out at 89.2 ± 1.1 µM.
In the case of `COc1cc(/C=C2\SC(=O)N(CC(=O)Nc3nc(-c4ccccc4)cs3)C2=O)cc(OC)c1OC` [compound 7b, (Z)-2-(5-(3,4,5-Trimethoxybenzylidene)thiazolidin-2,4-dion-3-yl)-N-(4-phenylthiazol-2-yl)acetamide], the “Topoisomerase Inhibition hTopo II” value at hTopo II (10 µM) and at hTopo II (50 µM) was “−” each time. Further, the “hTopo II activity inhibition (in words)” value on hTopo II (50 µM) is “unable to inhibit the hTopo II activity”. In addition, the IC50 in data set [1] is 17.9 ± 1.1 µM; in data set [2], greater than 100 µM; with A2058 melanoma cells, 3.5 ± 1.1 µM; in data set [3], 8.5 ± 1.2 µM; in data set [4] it was greater than 100 µM. Also, the “Topoisomerase Inhibition hTopo I” value at hTopo I (10 µM) is recorded as “−”. The “hTopo I activity inhibition (in words)” value on hTopo I (10 µM, 1 h, 37 °C) was “not able to inhibit the relaxation activity”.
Take `COc1cc(/C=C2\SC(=O)N(CC(=O)Nc3nc(-c4ccc(Cl)cc4)cs3)C2=O)cc(OC)c1OC` [compound 7d, (Z)-2-(5-(3,4,5-Trimethoxybenzylidene)thiazolidin-2,4-dion-3-yl)-N-(4-(4-chlorophenyl)thiazol-2-yl)acetamide]: the “Topoisomerase Inhibition hTopo II” value on hTopo II (10 µM) was “−”; at hTopo II (50 µM) it was “+”. The IC50 was 33.4 ± 1 µM in data set [1]; greater than 100 µM in data set [2]; 6.4 ± 0.9 µM with A2058 melanoma cells; 34.1 ± 0.7 µM in data set [3]; 36.1 ± 1 µM in data set [4]. In addition, the “Topoisomerase Inhibition hTopo I” value on hTopo I (10 µM) is reported as “−”. Further, the “hTopo I activity inhibition (in words)” value at hTopo I (10 µM, 1 h, 37 °C) is listed as “not able to inhibit the relaxation activity”.
As for `COc1cc(/C=C2\SC(=O)N(CC(=O)Nc3nc(-c4ccc(C)cc4)cs3)C2=O)cc(OC)c1OC` [compound 7c, (Z)-2-(5-(3,4,5-Trimethoxybenzylidene)thiazolidin-2,4-dion-3-yl)-N-(4-(4-methylphenyl)thiazol-2-yl)acetamide], the results for the “Topoisomerase Inhibition hTopo II” value at hTopo II (10 µM) and at hTopo II (50 µM) were “−” and “+”, respectively. Also, the concentration for half-maximal inhibition (IC50) in data set [1] was 32.8 ± 0.6 µM; in data set [2], 46.4 ± 1.1 µM; in the data set with A2058 melanoma cells, 4.8 ± 1 µM; in data set [3] it was 19.5 ± 0.6 µM; in data set [4], greater than 100 µM. Besides, the “Topoisomerase Inhibition hTopo I” value on hTopo I (10 µM) is given as “−”. Also, the “hTopo I activity inhibition (in words)” value at hTopo I (10 µM, 1 h, 37 °C) was “not able to inhibit the relaxation activity”.
